Among the test systems are 786-0; A498; A549; CAKI-1; EKVX; HOP-92; MDA-MB-231; NCI-H226; NCI-H460; NCI-H522; OVCAR-4; RXF 393; SF-539; SK-MEL-5; SK-OV-3; SN12C; SR; TK-10; UACC-257.
What all share (experiment): inhibition of tumour cell growth, NCI panel, 48 h

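How tested: cells in 96-well plates exposed to compound for 48 hours at five concentrations. At the GI50, growth is halved.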 Active and inactive are the calls of the source. No stated cut-off is given here; in the data, active = GI50 up to about 1.1 µM and inactive = higher.

As for `CC(=N\N=C\c1ccccn1)/C(C)=N/N=C/c1ccccn1`, the GI50 in the experiment with 786-0, in the experiment with A498, in the experiment on A549, in the experiment on CAKI-1, with EKVX and in the experiment with HOP-92 was > 100 µM (inactive) in each case. Further, the GI50 in the experiment on MDA-MB-231 was > 100 µM (inactive); in the experiment with NCI-H226, > 100 µM (inactive); in the experiment on NCI-H460, > 100 µM (inactive); in the experiment on NCI-H522 it was > 100 µM (inactive); in the experiment with OVCAR-4 it was 94.4 µM (inactive); with RXF 393, > 100 µM (inactive). For the same molecule, the GI50 was > 100 µM (inactive) in the experiment on SF-539; 98.4 µM (inactive) in the experiment on SK-MEL-5; > 100 µM (inactive) in the experiment with SK-OV-3; > 100 µM (inactive) in the experiment on SN12C; 88.5 µM (inactive) with SR; > 100 µM (inactive) in the experiment on TK-10. For the same molecule, the GI50 in the experiment with UACC-257 is > 100 µM (inactive).

`N=C(N)N/N=C/c1c(-c2cc([N+](=O)[O-])c(Cl)cc2Cl)nc2n1CCS2`: the GI50 in the experiment with 786-0 is 32.4 µM (inactive); in the experiment on A498 it was 77.3 µM (inactive); in the experiment on A549 it was 32.7 µM (inactive); in the experiment with CAKI-1, 40 µM (inactive); in the experiment on EKVX, 40.9 µM (inactive); in the experiment with HOP-92, 20.7 µM (inactive). Besides, the GI50 with MDA-MB-231 was 24.1 µM (inactive); in the experiment on NCI-H226, 34.4 µM (inactive); in the experiment with NCI-H460 it was 27.6 µM (inactive); in the experiment on NCI-H522 it was 17 µM (inactive); in the experiment with OVCAR-4, 10.4 µM (inactive); with RXF 393, 41.5 µM (inactive). Besides, the GI50 is 42.5 µM (inactive) in the experiment on SF-539; 29.9 µM (inactive) in the experiment with SK-MEL-5; 23.4 µM (inactive) in the experiment with SN12C; 0.951 µM (active) in the experiment on SR; 15.5 µM (inactive) in the experiment on TK-10; 20.7 µM (inactive) with UACC-257.

Consider `CCOC(=O)C#Cc1ccc(C#CC(=O)OCC)cc1`, for which the GI50 with 786-0 was 4.35 µM (inactive); with A498, 14.2 µM (inactive); in the experiment with A549, 3.75 µM (inactive); in the experiment with CAKI-1 it was 2.35 µM (inactive); with EKVX, 7.74 µM (inactive); in the experiment on HOP-92 it was 5.69 µM (inactive). The GI50 with MDA-MB-231 was 5.11 µM (inactive); in the experiment with NCI-H226, 3.3 µM (inactive); in the experiment on NCI-H460, 5.13 µM (inactive); in the experiment with NCI-H522 it was 2.9 µM (inactive); in the experiment with OVCAR-4 it was 2.83 µM (inactive); with RXF 393, 2.62 µM (inactive). The GI50 in the experiment on SF-539 was 10.6 µM (inactive); with SK-MEL-5, 2.89 µM (inactive); in the experiment on SK-OV-3, 9.84 µM (inactive); in the experiment on SN12C, 3.21 µM (inactive); with SR, 0.604 µM (active); with TK-10, 2.9 µM (inactive). In addition, the GI50 in the experiment on UACC-257 was 22.1 µM (inactive).

Take `C#CCCOC1(OC)N=NC(C)(C)O1` (stereo not given): the GI50 in the experiment with 786-0, with A498, in the experiment on A549, in the experiment with EKVX, in the experiment with HOP-92 and in the experiment on MDA-MB-231 was > 100 µM (inactive) in each case. Moreover, the GI50 in the experiment with NCI-H226, with NCI-H460, in the experiment on NCI-H522, with OVCAR-4, in the experiment on RXF 393 and in the experiment on SF-539 was > 100 µM (inactive) each time. For the same molecule, the GI50 in the experiment on SK-MEL-5, with SN12C, in the experiment with SR and in the experiment with UACC-257 was > 100 µM (inactive) in each case.

For the molecule `COc1cccc(/C=C/C2=NN(c3cccc(S(=O)(=O)O)c3)C3(C2)SCC(=O)N3c2nc3ccccc3s2)c1` (stereo not given), the GI50 is 21 µM (inactive) in the experiment with 786-0; 33 µM (inactive) in the experiment with A498; 60.3 µM (inactive) with A549; 50.9 µM (inactive) with CAKI-1; 69.2 µM (inactive) in the experiment with EKVX; 94.6 µM (inactive) in the experiment on HOP-92. For the same molecule, the GI50 in the experiment with MDA-MB-231 is 36.1 µM (inactive); with NCI-H226, 23.8 µM (inactive); with NCI-H460 it was 35.7 µM (inactive); with NCI-H522, 14.7 µM (inactive); in the experiment with OVCAR-4, 49.4 µM (inactive); in the experiment with RXF 393, 54.8 µM (inactive). For the same molecule, the GI50 is 17.1 µM (inactive) with SF-539; 36 µM (inactive) in the experiment on SK-MEL-5; 33.3 µM (inactive) with SN12C; 23.9 µM (inactive) in the experiment on SR; 28.8 µM (inactive) in the experiment on TK-10; 85.7 µM (inactive) with UACC-257.

In the case of `Cc1cc(=O)oc2cc(OS(C)(=O)=O)ccc12`, the GI50 with 786-0, with A498, with A549, in the experiment with CAKI-1, with EKVX and with HOP-92 was > 100 µM (inactive) in each case. Further, the GI50 with MDA-MB-231, in the experiment with NCI-H226, in the experiment with NCI-H460, in the experiment with NCI-H522, with OVCAR-4 and in the experiment on RXF 393 was > 100 µM (inactive) throughout. Moreover, the GI50 with SF-539, with SK-MEL-5, in the experiment with SN12C, in the experiment with SR, in the experiment with TK-10 and in the experiment with UACC-257 was > 100 µM (inactive) each time.

Regarding `CCOC(=O)C1=C(N2CCCC2)NC(=O)CC1=O`, the GI50 in the experiment with 786-0, in the experiment with A498, with A549, in the experiment on CAKI-1, with EKVX and in the experiment on HOP-92 was > 100 µM (inactive) in each case. Further, the GI50 in the experiment with MDA-MB-231, with NCI-H226, in the experiment on NCI-H522, in the experiment on OVCAR-4, in the experiment on RXF 393 and in the experiment on SF-539 was > 100 µM (inactive) throughout. The GI50 with SK-MEL-5, in the experiment with SK-OV-3, in the experiment with SN12C, in the experiment on SR, in the experiment with TK-10 and with UACC-257 was > 100 µM (inactive) throughout.

Turning to `COc1cc(C2c3cc4c(cc3C3OC[C@@H]2C3CO)OCO4)cc(OC)c1OC` (stereo not given in full), the GI50 in the experiment with 786-0 was 43.1 µM (inactive); with A498, 42 µM (inactive); with A549 it was 44.7 µM (inactive); in the experiment with CAKI-1, 78.7 µM (inactive); in the experiment with EKVX, 41.2 µM (inactive); in the experiment with HOP-92, > 100 µM (inactive). Besides, the GI50 with MDA-MB-231 was 38.1 µM (inactive); with NCI-H226, 20.2 µM (inactive); in the experiment with NCI-H460, 20.3 µM (inactive); in the experiment on NCI-H522 it was 23 µM (inactive); in the experiment with OVCAR-4, 71.1 µM (inactive); in the experiment with RXF 393, 37.6 µM (inactive). The GI50 in the experiment on SK-MEL-5 is 11.5 µM (inactive); in the experiment with SK-OV-3, 54.2 µM (inactive); in the experiment on SR, 13.3 µM (inactive); in the experiment with TK-10 it was 37.5 µM (inactive); with UACC-257, 18.2 µM (inactive).

Take `Cc1cc(Cc2c(F)c(F)c(C(c3cc(C)no3)c3c(F)c(F)c(F)c(F)c3F)c(F)c2F)on1` (stereo not given): the GI50 is > 100 µM (inactive) in the experiment on 786-0; > 100 µM (inactive) with A498; > 100 µM (inactive) in the experiment on A549; > 72.8 µM (inactive) in the experiment with CAKI-1; > 100 µM (inactive) in the experiment with EKVX; > 100 µM (inactive) in the experiment with HOP-92. Besides, the GI50 in the experiment on MDA-MB-231 was > 100 µM (inactive); in the experiment with NCI-H226, > 100 µM (inactive); in the experiment on NCI-H460, 6.41 µM (inactive); in the experiment on NCI-H522 it was 23.9 µM (inactive); in the experiment on OVCAR-4 it was > 100 µM (inactive); with RXF 393 it was 2.34 µM (inactive). For the same molecule, the GI50 with SF-539 is 17.9 µM (inactive); in the experiment with SK-MEL-5 it was 7.16 µM (inactive); with SN12C, > 50.7 µM (inactive); in the experiment on SR, > 25.7 µM (inactive); in the experiment with TK-10, > 100 µM (inactive); in the experiment on UACC-257 it was 5.32 µM (inactive).

`CCCCCCN1CCc2c(C)c(C#N)c3nc4ccccc4n3c21`: the GI50 is 42.9 µM (inactive) with 786-0; 76.6 µM (inactive) in the experiment with A498; 50.2 µM (inactive) in the experiment with A549; 22.5 µM (inactive) in the experiment on HOP-92; 5.73 µM (inactive) with MDA-MB-231; > 100 µM (inactive) in the experiment on NCI-H226. Further, the GI50 in the experiment with NCI-H460 is 16 µM (inactive); in the experiment on NCI-H522, 31.4 µM (inactive); in the experiment on OVCAR-4, 25.9 µM (inactive); in the experiment with RXF 393, 20.7 µM (inactive); with SF-539, > 100 µM (inactive); in the experiment with SK-MEL-5 it was 11.4 µM (inactive). For the same molecule, the GI50 in the experiment with SK-OV-3 was > 100 µM (inactive); in the experiment on SN12C, > 100 µM (inactive); in the experiment on SR, > 100 µM (inactive); with TK-10, > 100 µM (inactive); in the experiment on UACC-257 it was 16.3 µM (inactive).

`O=Cc1c2c(cc3c1CC1(C3)Cc3cc4c(c(C=O)c3C1)CCC4)CCC2`: the GI50 is > 100 µM (inactive) with 786-0; 30.7 µM (inactive) with A498; 30.3 µM (inactive) in the experiment on A549; 47.3 µM (inactive) in the experiment on EKVX; 23 µM (inactive) in the experiment on HOP-92; 23.5 µM (inactive) with MDA-MB-231. Further, the GI50 in the experiment on NCI-H226 was 29.1 µM (inactive); in the experiment on NCI-H522 it was 24.9 µM (inactive); in the experiment on OVCAR-4, 20.9 µM (inactive); in the experiment with RXF 393 it was 41.3 µM (inactive); with SF-539, 37.5 µM (inactive); with SK-MEL-5 it was 29.9 µM (inactive). Moreover, the GI50 was 36.1 µM (inactive) with SK-OV-3; 65.9 µM (inactive) with SN12C; 35.1 µM (inactive) in the experiment on SR; 32.5 µM (inactive) in the experiment on TK-10; 34.8 µM (inactive) with UACC-257.
